The record followed here is PMC5983452 (PLoS ONE, 2018).

Where “and” joins values, the source holds several entries; their conditions need not be identical. Equal entries are not always repeated. Structures can show the parent of a compound that is named as a salt. Where two headings read alike, the source gives them in different places. Some results are limits rather than exact numbers.

Data set [1] is described as follows: Hepatocyte stability, human. Format: in vitro ADME, humans. Particulars: for hepatocyte CLint at 1 µM: both sexes, human, cryopreserved hepatocytes, read-out: CLint measured with hepatocytes, Human.
Data set [2] is described as follows: Plasma protein binding (equilibrium dialysis), mouse. Conditions: male, CD-1, mouse, pH 7.4.
Description: (§1) Caco-2 permeability. Caco-2 cells (obtained from the ATCC), between passage numbers 40 to 60, were seeded onto Millipore
(§2) Multiscreen plates at 1x10^5 cells/cm2 in Dulbecco's Modified Eagle Medium. Media was changed every two or three days. On
(§3) Day 20, the permeability study was performed using Hanks Balanced Salt Solution (HBSS) pH 7.4 buffer with 25 mM HEPES and
(§4) Incubations were carried out in an atmosphere of 5% CO2 with a relative humidity of
(§5) The monolayers were prepared by rinsing both basolateral and apical surfaces twice with HBSS at 37°C. Cells were
(§6) then incubated with HBSS in both apical and basolateral compartments for 40 min to stabilize physiological parameters. HBSS […]
(§7) removed and apical and basolateral samples diluted for analysis by LC-MS/MS. Permeability was assessed in duplicate, on two
(§8) different occasions. […] Compounds were quantified by LC-MS/MS analysis using a 5 point calibration curve. The starting concentration (C0) was determined from the dosing solution and
(§9) experimental recovery calculated from C0 and both apical and basolateral compartment concentrations. […]
(§10) (Papp) for each compound was calculated as: (dQ/dt)/(C0xA), where dQ/dt is the rate of permeation of the drug across the cells, C0 […]
(§11) Plasma protein binding. Plasma protein binding was assessed by equilibrium dialysis utilizing the HT-dialysis cell format with a […]
Another data set relates to KYSE-150. The data set can be described thus: Cell proliferation, KYSE-150. The format is cell-based. Particulars: Homo sapiens, read-out: Cellular Proliferation IC50. As to the method:
Cell lines used in these experiments were obtained from the following sources and were cultured according to conditions specified by the respective cell banks. […] The cell lines listed above were tested for mycoplasma and were negative. Cells were authenticated by STR method or vendor protocols. All 313 cell lines in the CRIPSR pooled screen were purchased from commercial vendors and were STR authenticated and mycoplasma negative. A broad panel of cancer cell lines was screened in the Eurofins Oncopanel. All cells in this panel were mycoplasma negative and STR verified.
Thus, 5 compounds representing 4 distinct pharmacophore series of SMYD2 inhibitors are now available for testing the dependence of cancer lines on SMYD2 activity. […] In stark contrast, however, no correlation is seen between the potency for BTF3 methylation inhibition and anti-proliferative activity among these compounds (Fig 3B).

Data set [3] can be described thus: Hepatocyte stability, mouse. Format: in vitro ADME, CD-1 mice. Particulars: male, CD-1, mouse, cryopreserved hepatocytes, read-out: CLint measured with hepatocytes, Mouse.
Another data set concerns the target SMYD2 (Homo sapiens, UniProt Q9NRG4). Kind of data set: SMYD2 biochemical methylation assay (3H-SAM, H3,1–29 peptide, flashplate). On the set-up: Full length FLAG-SMYD2 and C-terminally Avi-tagged full length SMYD2 (SMYD2-Avi) were cloned into pFastbac vectors; FLAG (N); His tag with TEV cleavage site (N, cleaved yes); made in house; host or cells: Sf9 insect cells (baculovirus). The protocol: Full length FLAG-SMYD2 and C-terminally Avi-tagged full length SMYD2 (SMYD2-Avi) were cloned into pFastbac vectors containing an N-terminal His tag with TEV cleavage site. Virus production was performed using standard protocols and the proteins were coexpressed in either Sf9 (SMYD2) or Hi Five (SMYD2-Avi) cells. After harvest by centrifugation, cell pellets for both proteins were resuspended, sonicated, and then centrifuged to remove cell debris. Protein was purified using nickel affinity chromatography before and after TEV cleavage in a similar fashion as SMYD3. […] SMYD2-Avi was biotinylated using His-tagged BirA enzyme after dialysis into a low salt buffer and the BirA was removed with a final nickel affinity column. […] SMYD3 assays were performed as previously described using N-terminally GST-tagged MAP3K2 protein substrate. […] Reactions were conducted at room temperature with enzyme and inhibitor incubated for 30 minutes before initiating the reaction with substrates. Dose-response curves were tested in duplicate in each experiment. […] Quenched reactions were transferred to a streptavidin-coated flashplate (Perkin Elmer) for capture of the biotinylated peptide. After 2 h incubation at room temperature, the flashplate was washed once with 0.1% Tween-20 and read on a Perkin Elmer Topcount NXT plate reader. Substrate apparent KM values were determined by measuring the initial velocities (v0) in duplicate while varying one substrate at fixed concentration of the second substrate. […] Percent inhibition by compound (% inh) was calculated from Eq 3 %inh=(1-([…] the signal in the presence of compound and max and min are the signals for the DMSO and background controls respectively. […] Mechanism of inhibition was determined by measuring the inhibitor IC50 values while varying the concentration of one substrate at a fixed concentration of the second substrate equal to its KM value. The inhibition constant Ki was calculated from fitting the IC50 versus varied substrate concentration data using the Cheng-Prusoff equations for mixed-type and noncompetitive inhibition below. α is the coefficient accounting for differences in inhibitor affinity between binding enzyme forms after versus before substrate binding.

Data set [4] in a line: Mouse pharmacokinetic study. Particulars: male, CD-1, mouse; for half-life / Vd / clearance / bioavailability / Tmax: plasma.
Description: Mouse, rat, dog and monkey pharmacokinetic studies. The studies were performed in accordance with the AAALAC International
administered intravenousely (1 mg/kg in saline, tail vein injection, 2 mL/kg) and orally (5 mg/kg in 0.5%
MC/0.1% Tween 80, oral gavage, 10 mL/kg). Animals were weighed prior to dose administration and had free
access to water and food. At pre-specified time intervals up to 24 hours post-dose, blood samples (approximately
30 μL) were collected from saphenous vein into polypropylene micro centrifuge tubes (containing 2 μL of 1000
IU/ml Heparin-Na as anticoagulant) and stored on wet ice until processed to plasma by centrifugation (2000 rpm
for 5 min at 4C) within 30 min of collection. In the same study, urine was collected for 24 hours. For
intravenousely (2 mg/kg in ethanol:saline (10:90) solution, tail vein injection, 2 mL/kg) and orally (100 mg/kg in
ethanol:saline (20:80) solution, oral gavage, 10 mL/kg). Animals were weighed prior to dose administration and
Data set [5] is described as follows: Hepatocyte stability, dog. Format: in vitro ADME, beagle dogs. Conditions: male, beagle, cryopreserved hepatocytes, read-out: CLint measured with hepatocytes, Dog.
The format of data set [6] is in vitro ADME. Particulars: plasma. The protocol:
After stirred for 30 min at 25 °C, NaBH3CN […]
mixture was concentrated under vacuum. […] The combined organic […]
The crude product was further
The fractions containing product were combined and concentrated. […]
cyclopropylisoxazole-3-carboxamide hydrochloride as a light yellow solid.
Media was changed every two or three days. On
95% at 37°C. […] Cells were
At 120 min the companion plate was
Permeability was assessed in duplicate, on two […]
different occasions. […] Compounds were quantified by LC-MS/MS analysis using a 5 point calibration curve.
The permeability coefficient
Solutions of test compounds (1 µM, 0.5% final
Incubations were performed in
Haloperidol was incubated in parallel as the control compound for each species.
(7 points) and protein containing solutions (6 points).
Liver microsome (LM) stability. […]
the reaction. The final incubation volume was 50 µL. Negative control incubations were included where phosphate buffer was […]
min. The negative controls were incubated for 45 min only. […]
µL methanol at the appropriate time points.
Subsequently, intrinsic CL (CLint) was […]

The nature of data set [7]: in vitro. The format is in vitro ADME, beagle dogs. Particulars: male, beagle, dog, microsomes, pH 7.4.
The nature of data set [8]: Hepatocyte stability, rat. Format: in vitro ADME, SD rats.
A short description of data set [9]: Monkey (NHP) pharmacokinetic study. The format is in vivo, male cynomolgus monkeys. Conditions: cynomolgus monkey, male Cynomolgus. The protocol:
2. […] Food was returned 4 hours after dosing. […] 4. […] Food was returned 4 hours after dosing. […] Supplemental Results:SMYD2 compound characterization […] The […] nM (Figure S8A).

A short description of data set [10]: in vitro. Particulars: male, CD-1, mouse, plasma, pH 7.4.
Description: as §1, §2, §3, §4, §5, §6, §7, §8, §9, §10, §11
The nature of data set [11]: in vitro. Conditions: human, plasma, pH 7.4, Human fu (unbound fraction).
Description: as §1, §2, §3, §4, §5, §6, §7, §8, §9, §10, §11
A short description of data set [12]: in vitro. Format: in vitro ADME, humans.

Chain of SMYD2 (Q9NRG4 whole entry): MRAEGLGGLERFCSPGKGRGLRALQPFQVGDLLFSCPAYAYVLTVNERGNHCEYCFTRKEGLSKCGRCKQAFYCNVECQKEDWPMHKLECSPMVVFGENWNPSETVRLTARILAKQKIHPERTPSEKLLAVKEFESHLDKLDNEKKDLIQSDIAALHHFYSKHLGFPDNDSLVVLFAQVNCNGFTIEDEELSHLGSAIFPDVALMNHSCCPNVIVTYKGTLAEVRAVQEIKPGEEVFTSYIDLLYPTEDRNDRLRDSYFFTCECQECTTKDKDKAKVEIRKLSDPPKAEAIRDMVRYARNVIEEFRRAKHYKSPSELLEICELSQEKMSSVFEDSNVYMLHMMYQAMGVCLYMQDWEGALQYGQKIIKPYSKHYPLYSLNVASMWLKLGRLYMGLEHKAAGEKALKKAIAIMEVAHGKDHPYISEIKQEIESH

With `O=C(NC1CN(Cc2cnn(Cc3ccc(Cl)cc3)c2)C1)c1cn(C2CC2)nn1` [EPZ033294], the hepatocyte CLint at 1 µM in data set [1] worked out at 6 µL/min/1e6 cells; in data set [3], 10.9 µL/min/1e6 cells. The same compound had a fraction unbound at 16 h, 1 µM in data set [2] of 0.26. Also, the IC50 in the data set on KYSE-150 was more than 40000 nM; on SMYD2 (IC50 at 20 nM SAM, 1 nM SMYD2, 60 nM H3,1-29, 20 nM SAM), 2.8 ± 0.4 nM; on SMYD2 (IC50 at 200 nM SAM, 1 nM SMYD2, 60 nM H3,1-29, 200 nM SAM), 3.2 ± 0.5 nM; at SMYD2 (SMYD2, 20 nM SAM, 60 nM H3,1–29 peptide, read-out: Biochemical IC50), 3.9 nM. Besides, the “mechanism of inhibition with respect to peptide substrate” value on SMYD2 (1 nM enzyme, 20 nM SAM, varied H3,1–29) is given as “noncompetitive”. The “mechanism of inhibition with respect to SAM” value on SMYD2 (IC50 compared at two SAM concentrations differing by 10-fold) is recorded as “either noncompetitive or uncompetitive”. Moreover, the Ki at SMYD2 (varied H3,1–29 peptide, Eq 6, read-out: Ki (noncompetitive versus peptide)) was determined as 3.9 ± 0.4 nM. In addition, the half-life in data set [4] is 3.2 ± 1 h. This compound also had a Vd in data set [4] (iv, 2 mg/kg) of 4.5 ± 1 L/kg. In data set [4] (iv, 2 mg/kg), this compound showed a clearance of 37.4 ± 6.7 mL/min/kg. Moreover, the bioavailability in data set [4] (oral, 10 mg/kg) stood at 241 ± 20%. Also, the Tmax in data set [4] (po, 10 mg/kg) is 1.7 ± 0.6 h.

Turning to `NC1CCC(S(=O)(=O)N2C3CCC2CC(NC(=O)c2cc(C4CC4)on2)C3)CC1` [EPZ028862, N-((1R,3R,5S)-8-((1r,4R)-4-aminocyclohexylsulfonyl)-8-aza-bicyclo[3.2.1]octan-3-yl)-5-cyclopropylisoxazole-3-carboxamide hydrochloride], the “CLint measured with hepatocytes, Human” value in data set [1] (1 µM) was 3.7 µL/min/106 cells and < 3 µL/min/106 cells. Besides, the hepatocyte CLint at 1 µM is 4.8 µL/min/1e6 cells in data set [1]; less than 3 µL/min/1e6 cells in data set [5]; 5.2 µL/min/1e6 cells in data set [8] (male, Sprague-Dawley, rat, cryopreserved hepatocytes, read-out: CLint measured with hepatocytes, Rat); 6.6 µL/min/1e6 cells in data set [3]. Moreover, the “Monkey fu (unbound fraction)” value in data set [6] was “highly bound”. The microsomal CLint at 1 µM in “in vitro [7]” is less than 3 µL/min/mg; in the data set “in vitro [12]” (both sexes, human, microsomes, pH 7.4, CLint measured with liver microsomes), less than 3 µL/min/mg. Besides, in data set [8] (1 µM), the “CLint measured with hepatocytes, Rat” value came out at 3.5 µL/min/106 cells. The IC50 at SMYD2 (tested in duplicate, read-out: selectivity panel result, SMYD2 (off-target)) was more than 10000 nM. For the same compound, the MRT in [9] (plasma, IV 1 mg/kg, PO 5 mg/kg) amounted to 7.4 ± 1.5 h. Also, the bioavailability in [9] (plasma, IV 1 mg/kg, PO 5 mg/kg) is 62 ± 13%; in [4] (po, 5 mg/kg) it was approximately 100%. For the same compound, the half-life is 5.6 ± 1.3 h in data set [9] (plasma, IV 1 mg/kg, PO 5 mg/kg) and 2 h in data set [4]. The clearance in data set [9] (plasma, IV 1 mg/kg, read-out: CLp) was determined as 21.4 ± 3.4 mL/min/kg; in data set [4] (iv, 1 mg/kg), 79.8 mL/min/kg. Moreover, the Vd in [9] (plasma, IV 1 mg/kg, read-out: Vss) is 9.5 ± 2.5 L/kg; in [4] (iv, 1 mg/kg), 9.5 L/kg. Besides, the Tmax in [9] (plasma, PO 5 mg/kg) is 2 h; in data set [4] (po, 5 mg/kg), 0.33 h. Also, the CL renal in [9] (urine and plasma, IV 1 mg/kg) was determined as 1.06 ± 0.84 mL/min/kg; in data set [4] (urine and plasma, iv, 1 mg/kg), 23.6 mL/min/kg. Besides, the fraction unbound at 16 h, 1 µM in the data set “in vitro [10]” turned out to be 0.51; in the data set “in vitro [11]”, 0.71. In “in vitro [12]” (both, 1 µM, pH 7.4), the “CLint measured with liver microsomes, Human” value was 3.3 µL/min/mg microsomal protein.
